From patent EP3283483B1, “CRYSTALLINE ELIGLUSTAT HYDROCHLORIDE” (Sandoz AG, priority 2015, dated 2016)
Structures can show the parent of a compound that is named as a salt.

Tests used:
[1] = Aqueous solubility determined gravimetrically by slurrying in water; format: physicochemical
Description: Aqueous solubility was determined gravimetrically by slurrying Eliglustat hydrochloride from example 1 in water at 22°C. The pH of Eliglustat HCl in water was 7.6. A filtered aliquot was transferred to a pre-weighed vial and the solution evaporated.

[2] = Storage stability of the crystalline form, XRPD analysis after storage; format: physicochemical; settings: stored for one week at 40°C / 75% relative humidity
Description: XRPD analyses were performed on crystalline eliglustat hydrochloride from example 1 using a Panalytical Xpert Pro diffractometer equipped with a Cu X-ray tube and a Pixcel detector system. The isothermal samples were analysed in transmission mode and held between low density polyethylene films. The following XRPD program was used: range 3-40°2θ, step size 0.013°, counting time 99sec, ∼22min run time.
Crystalline eliglustat hydrochloride from example 1 was stored for one week at 40°C / 75% relative humidity.

CCCCCCCC(=O)N[C@H](CN1CCCC1)[C@H](O)c1ccc2c(c1)OCCO2 [Eliglustat hydrochloride, (1R,2R)-octanoic acid[2-(2',3'-dihydro-benzo[1,4]dioxin-6'-yl)-2-hydroxy-1-pyrrolidin-1-ylmethyl-ethyl]-amide]
solubility ([1]; pH 7.6, thermodynamic from solid, water, 22°C, gravimetric, pH in water 7.6): 33 mg/mL
pH of Eliglustat HCl in water ([1]; slurry in water at 22°C): 7.6
stability of crystalline form after storage (XRPD) [2]: remained stable with regard to its crystalline form
